The values below come from PubChem BioAssay (NCI).

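Growth conditions: 96-well plates. Treatment: test compound, 48 hours, 5 concentrations. Analysis: linear interpolation between bracketing concentrations; unreached endpoints set to highest concentration. The concentration for full growth arrest is given as TGI.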

One assay relates to NCI/ADR-RES ovarian. Nature of the assay: growth of human tumour cells (NCI), 48 h.
As for `O=C1OCC(O)=C1C(c1ccc(Cl)cc1)c1cc2c(cc1O)OCO2` (stereo not given), the TGI was more than 100 µM.

In another assay the test system is BT-549 breast. The experiment in a line: growth of human tumour cells (NCI), 48 h.
Take `CCC[C@@H](O)C[C@@H]1CCC[C@H](C[C@@H](O)CC)N1C`: the TGI is more than 100 µM.
Still for that read-out and setting: the result for `CC[C@@]1(C[C@H]2C[C@@]3(C(=O)OC)c4[nH]c5ccccc5c4CCN3C2=O)COC2(CCCCC2)O1` reads more than 100 µM; that for `O=C1C(=Cc2ccc(O)cc2)N=C(c2ccccc2)N1n1c(-c2ccccc2)nc2ccccc2c1=O`, more than 100 µM; that for `O=C1OCC(O)=C1C(c1ccc(Cl)cc1)c1cc2c(cc1O)OCO2` (stereo not given), more than 100 µM.

The subject of a further assay is A549 NSCLC. Nature of the assay: growth of human tumour cells (NCI), 48 h.
Molecule `CCC[C@@H](O)C[C@@H]1CCC[C@H](C[C@@H](O)CC)N1C` displayed a TGI of more than 100 µM.
For the molecule `CC[C@@]1(C[C@H]2C[C@@]3(C(=O)OC)c4[nH]c5ccccc5c4CCN3C2=O)COC2(CCCCC2)O1`, the TGI is more than 100 µM.
On the same count and under the same terms, the value for `O=C1C(=Cc2ccc(O)cc2)N=C(c2ccccc2)N1n1c(-c2ccccc2)nc2ccccc2c1=O` was more than 100 µM.
The same measure, in the same setting: the value for `O=C1OCC(O)=C1C(c1ccc(Cl)cc1)c1cc2c(cc1O)OCO2` (stereo not given) was more than 100 µM.

The subject of the next assay is SF-268 CNS. Nature of the assay: growth of human tumour cells (NCI), 48 h.
For `CCC[C@@H](O)C[C@@H]1CCC[C@H](C[C@@H](O)CC)N1C`, the TGI was 45.1 µM.
Turning to `CC[C@@]1(C[C@H]2C[C@@]3(C(=O)OC)c4[nH]c5ccccc5c4CCN3C2=O)COC2(CCCCC2)O1`, the TGI was more than 100 µM.
Still for that read-out and setting: the value for `O=C1C(=Cc2ccc(O)cc2)N=C(c2ccccc2)N1n1c(-c2ccccc2)nc2ccccc2c1=O` was more than 100 µM; that for `O=C1OCC(O)=C1C(c1ccc(Cl)cc1)c1cc2c(cc1O)OCO2` (stereo not given) was more than 100 µM.

The next assay concerns SK-OV-3 ovarian. Nature of the assay: growth of human tumour cells (NCI), 48 h.
As to `CCC[C@@H](O)C[C@@H]1CCC[C@H](C[C@@H](O)CC)N1C`, the TGI was more than 100 µM.
The molecule `CC[C@@]1(C[C@H]2C[C@@]3(C(=O)OC)c4[nH]c5ccccc5c4CCN3C2=O)COC2(CCCCC2)O1` returned a TGI of more than 100 µM.
Molecule `O=C1C(=Cc2ccc(O)cc2)N=C(c2ccccc2)N1n1c(-c2ccccc2)nc2ccccc2c1=O` gave a TGI of more than 100 µM.
Consider `O=C1OCC(O)=C1C(c1ccc(Cl)cc1)c1cc2c(cc1O)OCO2` (stereo not given), for which the TGI was more than 100 µM.

In another assay the test system is RXF 393 renal. The experiment in a line: growth of human tumour cells (NCI), 48 h.
With `CC[C@@]1(C[C@H]2C[C@@]3(C(=O)OC)c4[nH]c5ccccc5c4CCN3C2=O)COC2(CCCCC2)O1`, the TGI is more than 100 µM.
As for `O=C1OCC(O)=C1C(c1ccc(Cl)cc1)c1cc2c(cc1O)OCO2` (stereo not given), the TGI is more than 100 µM.

The subject of a further assay is SK-MEL-5 melanoma. The experiment in a line: growth of human tumour cells (NCI), 48 h.
As to `CCC[C@@H](O)C[C@@H]1CCC[C@H](C[C@@H](O)CC)N1C`, the TGI was more than 100 µM.
Same read-out and setting: the result for `CC[C@@]1(C[C@H]2C[C@@]3(C(=O)OC)c4[nH]c5ccccc5c4CCN3C2=O)COC2(CCCCC2)O1` reads 41.2 µM; that for `O=C1C(=Cc2ccc(O)cc2)N=C(c2ccccc2)N1n1c(-c2ccccc2)nc2ccccc2c1=O`, more than 100 µM.
The molecule `O=C1OCC(O)=C1C(c1ccc(Cl)cc1)c1cc2c(cc1O)OCO2` (stereo not given) came in with a TGI of more than 100 µM.

Another assay relates to DU-145 prostate. The experiment in a line: growth of human tumour cells (NCI), 48 h.
Regarding `CCC[C@@H](O)C[C@@H]1CCC[C@H](C[C@@H](O)CC)N1C`, the TGI was more than 100 µM.
`CC[C@@]1(C[C@H]2C[C@@]3(C(=O)OC)c4[nH]c5ccccc5c4CCN3C2=O)COC2(CCCCC2)O1` had a TGI of more than 100 µM.
On the same count and under the same terms, the value for `O=C1C(=Cc2ccc(O)cc2)N=C(c2ccccc2)N1n1c(-c2ccccc2)nc2ccccc2c1=O` was more than 100 µM; that for `O=C1OCC(O)=C1C(c1ccc(Cl)cc1)c1cc2c(cc1O)OCO2` (stereo not given) was more than 100 µM.

A further assay relates to NCI-H460 lung. The experiment in a line: growth of human tumour cells (NCI), 48 h.
`CC[C@@]1(C[C@H]2C[C@@]3(C(=O)OC)c4[nH]c5ccccc5c4CCN3C2=O)COC2(CCCCC2)O1` came in with a TGI of more than 100 µM.
The same measure, in the same setting: the result for `O=C1OCC(O)=C1C(c1ccc(Cl)cc1)c1cc2c(cc1O)OCO2` (stereo not given) reads more than 100 µM.

The next assay has as its system MOLT-4 leukemia. The experiment in a line: growth of human tumour cells (NCI), 48 h.
For the molecule `CCC[C@@H](O)C[C@@H]1CCC[C@H](C[C@@H](O)CC)N1C`, the TGI is more than 100 µM.
With `CC[C@@]1(C[C@H]2C[C@@]3(C(=O)OC)c4[nH]c5ccccc5c4CCN3C2=O)COC2(CCCCC2)O1`, the TGI was more than 100 µM.
The same measure, in the same setting: the value for `O=C1C(=Cc2ccc(O)cc2)N=C(c2ccccc2)N1n1c(-c2ccccc2)nc2ccccc2c1=O` was more than 100 µM; that for `O=C1OCC(O)=C1C(c1ccc(Cl)cc1)c1cc2c(cc1O)OCO2` (stereo not given) was more than 100 µM.

In another assay the test system is HS 578T breast. Nature of the assay: growth of human tumour cells (NCI), 48 h.
`CC[C@@]1(C[C@H]2C[C@@]3(C(=O)OC)c4[nH]c5ccccc5c4CCN3C2=O)COC2(CCCCC2)O1` had a TGI of 87 µM.
Same read-out and setting: the result for `O=C1C(=Cc2ccc(O)cc2)N=C(c2ccccc2)N1n1c(-c2ccccc2)nc2ccccc2c1=O` reads more than 100 µM; that for `O=C1OCC(O)=C1C(c1ccc(Cl)cc1)c1cc2c(cc1O)OCO2` (stereo not given), more than 100 µM.

The subject of another assay is MDA-N. The experiment in a line: growth of human tumour cells (NCI), 48 h.
For `CCC[C@@H](O)C[C@@H]1CCC[C@H](C[C@@H](O)CC)N1C`, the TGI was more than 100 µM.
The same measure, in the same setting: the result for `CC[C@@]1(C[C@H]2C[C@@]3(C(=O)OC)c4[nH]c5ccccc5c4CCN3C2=O)COC2(CCCCC2)O1` reads more than 100 µM; that for `O=C1C(=Cc2ccc(O)cc2)N=C(c2ccccc2)N1n1c(-c2ccccc2)nc2ccccc2c1=O`, more than 100 µM.
`O=C1OCC(O)=C1C(c1ccc(Cl)cc1)c1cc2c(cc1O)OCO2` (stereo not given): the TGI was more than 100 µM.

The next assay relates to MCF7 breast. Nature of the assay: growth of human tumour cells (NCI), 48 h.
As for `CCC[C@@H](O)C[C@@H]1CCC[C@H](C[C@@H](O)CC)N1C`, the TGI is more than 100 µM.
On the same count and under the same terms, the result for `CC[C@@]1(C[C@H]2C[C@@]3(C(=O)OC)c4[nH]c5ccccc5c4CCN3C2=O)COC2(CCCCC2)O1` reads 91.4 µM; that for `O=C1C(=Cc2ccc(O)cc2)N=C(c2ccccc2)N1n1c(-c2ccccc2)nc2ccccc2c1=O`, more than 100 µM.
`O=C1OCC(O)=C1C(c1ccc(Cl)cc1)c1cc2c(cc1O)OCO2` (stereo not given) registered a TGI of more than 100 µM.

The test system of a further assay is A498 renal. The experiment in a line: growth of human tumour cells (NCI), 48 h.
In turn, `CCC[C@@H](O)C[C@@H]1CCC[C@H](C[C@@H](O)CC)N1C` came in with a TGI of more than 100 µM.
Same read-out and setting: the value for `O=C1OCC(O)=C1C(c1ccc(Cl)cc1)c1cc2c(cc1O)OCO2` (stereo not given) was more than 100 µM.

A further assay concerns HOP-92 NSCLC. Nature of the assay: growth of human tumour cells (NCI), 48 h.
As for `CCC[C@@H](O)C[C@@H]1CCC[C@H](C[C@@H](O)CC)N1C`, the TGI is 5.06 µM.
The molecule `O=C1OCC(O)=C1C(c1ccc(Cl)cc1)c1cc2c(cc1O)OCO2` (stereo not given) came in with a TGI of more than 100 µM.

The subject of the next assay is K-562 leukemia. The experiment in a line: growth of human tumour cells (NCI), 48 h.
Regarding `CCC[C@@H](O)C[C@@H]1CCC[C@H](C[C@@H](O)CC)N1C`, the TGI is more than 100 µM.
On the same count and under the same terms, the value for `CC[C@@]1(C[C@H]2C[C@@]3(C(=O)OC)c4[nH]c5ccccc5c4CCN3C2=O)COC2(CCCCC2)O1` was more than 100 µM.
